Results on six compounds are retold here after patent publication US12403135B2, “4H-pyrrolo[3,2-c]pyridin-4-one derivatives” (Bayer Aktiengesellschaft, priority 2019, dated 2025).

What all share (type): cell-based
Test [1] has as its system Ba/F3-EGFR-D770_N771 insSVD C797S cells. As to the kind of experiment: BA/F3 (EGFR D770_N771 insSVD C797S) proliferation, acquired resistance. To be noted: Ba/F3 EGFR-D770-N771ins_SVD; Table 11; acquired resistance space. Here is the method:
(§1) Plates were incubated at 37° C. for 48 h. Retrovirus was harvested by filtering the media supernatant through a 0.45 μm filter.
(§2) Ba/F3 cells purchased from DSMZ were grown in RPMI+10% FBS+10 ng/mL IL-3 and infected with filtered retroviral supernatant at a 1:2 dilution. Polybrene was added to a concentration of 8 μg/mL, plates were spun for 90 min, and incubated overnight at 37° C. 2 μg/mL puromycin was added to the infected cells 24 h after infection and cells were continually grown in the presence of puromycin and 10 ng/mL IL-3. Following stably expressing Ba/F3 cell lines were generated: Ba/F3-EGFR-V769_D770 insASV, Ba/F3-EGFR-D770_N771 insNPG, Ba/F3-EGFR-N771_P772 insH, Ba/F3-EGFR-H773_V774 insNPH, Ba/F3-EGFR-D770_N771 insSVD C797S, Ba/F3-EGFR-E746_A750del C797S, Ba/F3-EGFR-L858R C797S, Ba/F3-EGFR L861Q and Ba/F3-ERBB2-A775_G776insYVMA (Ba/F3-vector-control).

The target of test [2] is Ba/F3-ERBB2-A775_G776insYVMA cells (Homo sapiens, UniProt P04626, DUP772-775, cells depend on it). As to the kind of experiment: BA/F3 (ERBB2 A775_G776 insYVMA) proliferation. To be noted: Table 12; read-out: BA/F3 (ERBB2 A775_G776 insYVMA) IC50. Here is the method: as §1, §2
Chain of Ba/F3-ERBB2-A775_G776insYVMA cells (P04626 with tags, fused parts or gaps DUP772-775): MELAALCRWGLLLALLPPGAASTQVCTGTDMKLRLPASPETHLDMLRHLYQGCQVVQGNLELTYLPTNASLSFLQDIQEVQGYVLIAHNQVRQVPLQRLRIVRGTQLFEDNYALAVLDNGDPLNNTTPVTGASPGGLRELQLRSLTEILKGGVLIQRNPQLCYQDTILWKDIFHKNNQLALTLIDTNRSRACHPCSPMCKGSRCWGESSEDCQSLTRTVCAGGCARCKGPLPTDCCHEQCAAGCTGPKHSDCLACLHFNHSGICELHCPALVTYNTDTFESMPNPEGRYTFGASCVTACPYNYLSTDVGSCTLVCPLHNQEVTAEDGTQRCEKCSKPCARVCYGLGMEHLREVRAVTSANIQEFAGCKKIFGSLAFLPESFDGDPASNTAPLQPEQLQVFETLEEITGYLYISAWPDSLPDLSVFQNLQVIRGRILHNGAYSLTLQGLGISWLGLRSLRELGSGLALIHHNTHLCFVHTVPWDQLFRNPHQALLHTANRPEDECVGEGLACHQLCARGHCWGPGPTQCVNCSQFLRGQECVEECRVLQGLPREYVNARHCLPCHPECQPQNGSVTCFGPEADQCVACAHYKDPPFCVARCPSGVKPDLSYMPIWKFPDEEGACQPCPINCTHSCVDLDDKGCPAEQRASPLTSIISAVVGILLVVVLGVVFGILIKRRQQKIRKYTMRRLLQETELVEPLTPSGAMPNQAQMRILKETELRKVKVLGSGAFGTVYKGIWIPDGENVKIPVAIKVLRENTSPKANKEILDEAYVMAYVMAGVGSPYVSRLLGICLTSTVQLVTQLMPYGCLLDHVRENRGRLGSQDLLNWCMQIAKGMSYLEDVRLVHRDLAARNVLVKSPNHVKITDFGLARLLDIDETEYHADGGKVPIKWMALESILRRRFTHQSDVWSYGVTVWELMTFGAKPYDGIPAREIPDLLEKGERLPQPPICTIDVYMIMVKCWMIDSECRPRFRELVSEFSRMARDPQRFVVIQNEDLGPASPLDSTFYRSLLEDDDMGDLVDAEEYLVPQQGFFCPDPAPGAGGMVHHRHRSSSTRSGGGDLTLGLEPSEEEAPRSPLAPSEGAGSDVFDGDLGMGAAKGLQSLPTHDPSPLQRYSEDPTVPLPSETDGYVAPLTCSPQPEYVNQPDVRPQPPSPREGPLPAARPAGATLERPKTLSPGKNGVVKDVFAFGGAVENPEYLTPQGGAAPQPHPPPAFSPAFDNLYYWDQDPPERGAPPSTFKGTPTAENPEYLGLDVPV
The test system of test [3] is HCC-827 cells (EGFRex19del). Description: HCC-827 cell proliferation, Cell Titer Glo, 72 h. The following applies: Homo sapiens. The procedure:
(§3) HCC-827 cells were purchased from ATCC. 400 HCC-829 cells per well were seeded in growth medium (RPMI1640, 10% FCS) in a 384-well plate (CORNING #3571). Seed reference plate for time zero determination on the same day. All plates were incubated overnight at 37° C. After 24 hours, test compound were added in 7-step dilution using HP Compound printer and incubated at 37° C. for 72 h. After 3 days, 30 μL/well CTG solution (Promega Cell Titer Glo solution; catalog #G755B and G756B) were added to each well, incubated for 30 minutes and the plate were read on PheraStar. Proliferation is calculated after subtracting time zero luminescence values from day 4 values and comparing to untreated wells.
The IC50 values were determined using the four parameter fit.

Test [4] relates to Ba/F3-EGFR-L858R C797S cells. Description: BA/F3 (EGFR L858R C797S) proliferation, acquired resistance. The following applies: Table 11, acquired resistance space. The procedure:
as §1, §2

Test [5] relates to Ba/F3-EGFR-delLREA cells (EGFR del19/delLREA (746-750), E746_A750del). As to the kind of experiment: BA/F3 EGFR del19/delLREA (746-750) (E746_A750del) cell survival assay, Cell Titer-Glo. To be noted: Table 10, classical activating and uncommon EGFR mutations, read-out: BA/F3 (EGFR E746_A750del) IC50. Here is the method:
as §1
(§4) Ba/F3 cells purchased from DSMZ were grown in RPMI+10% FBS+10 ng/mL IL-3 and infected with filtered retroviral supernatant at a 1:2 dilution. Polybrene was added to a concentration of 8 μg/mL, plates were spun for 90 min, and incubated overnight at 37° C. 2 μg/mL puromycin was added to the infected cells 24 h after infection and cells were continually grown in the presence of puromycin and 10 ng/mL IL-3. Following stably expressing Ba/F3 cell lines were generated: Ba/F3-EGFR-L858R, Ba/F3-EGFR-delLREA, (Ba/F3-vector-control).
(§5) For cell survival assays, Ba/F3 cells were grown to a density of 1-2 million cells per mL, spun down and resuspended in media without IL-3, and replated at a concentration 200,000-500,000 cells per mL. The cells ectopically expressing pBABEpuro empty vector were plated with 10 ng/mL IL-3.
(§6) 2 days later, cells were plated in 50 μL in a 384 well plate at a concentration of 4000 cells per well for cells assayed in the absence of IL-3 and 2000 cells per well for cells (pBABE puro empty vector) assayed in the presence of IL-3. 100 nL of compound was added to each well using a 100 nL pin head, and plates were incubated at 37° C. for 48 h.
(§7) Cell viability was measured by adding 20 μL of Cell Titer-Glo Luminescent Cell Viability Reagent diluted 1:3 in PBS. Plates were sealed with Perkin Elmer Top-Seal, inverted several times to mix, and immediately centrifuged at 1000 rpm for 2 min. Plates were incubated in low light conditions for 8-10 min and luminescence was measured.

Test [6] concerns Ba/F3-EGFR-E746_A750del C797S cells. Description: BA/F3 (EGFR E746_A750del C797S) proliferation, acquired resistance. To be noted: Table 11, acquired resistance space. The procedure: as §1, §2
The test system of another test is Ba/F3-EGFR L861Q cells. As to the kind of experiment: BA/F3 (EGFR L861Q) proliferation, uncommon EGFR mutation. The following applies: Table 10, classical activating and uncommon EGFR mutations. Here is the method:
as §1, §2

The subject of another test is PC9 cells (EGFRex19del). Description: PC9 cell proliferation, Cell Titer Glo, 72 h. The procedure:
as §3, with “PC9” for “HCC-827”, “PC9” for “HCC-829”, “(DMEM,” for “(RPMI1640,”, “wells. The IC50 values were determined using the four parameter fit.” for “wells.”

A further test addresses Ba/F3-EGFR-L858R cells (Homo sapiens, UniProt P00533, L858R, cells depend on it). Description: BA/F3 EGFR L858R cell survival assay, Cell Titer-Glo. The following applies: Table 10; classical activating and uncommon EGFR mutations; read-out: BA/F3 (EGFR L858R) IC50. Here is the method: as §1, §4, §5, §6, §7
Test [7] deals with Ba/F3-EGFR-V769_D770 insASV cells (Homo sapiens, UniProt P00533, DUP767-769, cells depend on it). Description: BA/F3 (ASV) proliferation, EGFR Exon20 insertion mutation. To be noted: Table 9; EGFR Exon20 insertion mutations; read-out: BA/F3 (ASV) IC50. Here is the method: as §1, §2
Chain of Ba/F3-EGFR-V769_D770 insASV cells (P00533 with tags, fused parts or gaps DUP767-769): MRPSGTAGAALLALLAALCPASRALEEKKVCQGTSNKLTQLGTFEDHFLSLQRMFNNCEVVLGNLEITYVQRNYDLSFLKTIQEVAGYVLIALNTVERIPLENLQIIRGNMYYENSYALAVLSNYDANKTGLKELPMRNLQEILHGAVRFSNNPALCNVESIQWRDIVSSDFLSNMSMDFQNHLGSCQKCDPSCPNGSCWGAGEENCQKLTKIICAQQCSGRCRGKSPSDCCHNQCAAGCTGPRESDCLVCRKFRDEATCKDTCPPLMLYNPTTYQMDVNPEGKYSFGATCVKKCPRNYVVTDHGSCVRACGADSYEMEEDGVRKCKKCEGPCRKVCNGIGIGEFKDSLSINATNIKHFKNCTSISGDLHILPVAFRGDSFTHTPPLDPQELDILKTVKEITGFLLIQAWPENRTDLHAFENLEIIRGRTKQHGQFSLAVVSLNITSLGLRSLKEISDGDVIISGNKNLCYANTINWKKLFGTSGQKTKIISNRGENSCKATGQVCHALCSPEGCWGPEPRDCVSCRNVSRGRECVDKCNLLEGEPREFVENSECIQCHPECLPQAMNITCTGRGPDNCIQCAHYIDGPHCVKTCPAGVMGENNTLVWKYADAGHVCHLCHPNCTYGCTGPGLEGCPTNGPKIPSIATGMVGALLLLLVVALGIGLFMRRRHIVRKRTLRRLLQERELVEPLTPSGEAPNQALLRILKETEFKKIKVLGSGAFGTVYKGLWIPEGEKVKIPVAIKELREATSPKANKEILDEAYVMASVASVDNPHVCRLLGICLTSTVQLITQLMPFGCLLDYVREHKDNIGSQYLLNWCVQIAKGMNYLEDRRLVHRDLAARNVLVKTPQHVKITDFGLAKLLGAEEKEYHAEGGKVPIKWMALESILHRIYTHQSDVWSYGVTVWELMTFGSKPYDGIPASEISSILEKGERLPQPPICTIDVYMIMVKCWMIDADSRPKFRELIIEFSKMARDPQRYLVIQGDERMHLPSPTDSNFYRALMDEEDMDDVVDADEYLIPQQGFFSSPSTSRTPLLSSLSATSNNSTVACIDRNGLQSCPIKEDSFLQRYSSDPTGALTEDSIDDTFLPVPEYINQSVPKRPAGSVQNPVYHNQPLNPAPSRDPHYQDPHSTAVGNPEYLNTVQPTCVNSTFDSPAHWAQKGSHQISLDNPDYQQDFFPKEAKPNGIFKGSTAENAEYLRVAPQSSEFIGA
Test [8] concerns the target Ba/F3-EGFR-D770_N771 insNPG cells (Homo sapiens, UniProt P00533, INS772GNP, cells depend on it). As to the kind of experiment: BA/F3 (insNPG) proliferation, EGFR Exon20 insertion mutation. The following applies: Table 9; EGFR Exon20 insertion mutations; read-out: BA/F3 (insNPG) IC50. Here is the method:
as §1, §2

Where [9] appears, read: HCC827, 72 h, Table 12, several values per example.
The mark [10] stands for this setting: Homo sapiens, PC-9, 72 h, Table 12, several values per example.
The mark [11] stands for this setting: HCC827, Table 12, several values per example.
Where [12] appears, read: Homo sapiens, PC-9, Table 12, several values per example.

Some results are limits rather than exact numbers.

Chain of Ba/F3-EGFR-D770_N771 insNPG cells (P00533 with tags, fused parts or gaps INS772GNP): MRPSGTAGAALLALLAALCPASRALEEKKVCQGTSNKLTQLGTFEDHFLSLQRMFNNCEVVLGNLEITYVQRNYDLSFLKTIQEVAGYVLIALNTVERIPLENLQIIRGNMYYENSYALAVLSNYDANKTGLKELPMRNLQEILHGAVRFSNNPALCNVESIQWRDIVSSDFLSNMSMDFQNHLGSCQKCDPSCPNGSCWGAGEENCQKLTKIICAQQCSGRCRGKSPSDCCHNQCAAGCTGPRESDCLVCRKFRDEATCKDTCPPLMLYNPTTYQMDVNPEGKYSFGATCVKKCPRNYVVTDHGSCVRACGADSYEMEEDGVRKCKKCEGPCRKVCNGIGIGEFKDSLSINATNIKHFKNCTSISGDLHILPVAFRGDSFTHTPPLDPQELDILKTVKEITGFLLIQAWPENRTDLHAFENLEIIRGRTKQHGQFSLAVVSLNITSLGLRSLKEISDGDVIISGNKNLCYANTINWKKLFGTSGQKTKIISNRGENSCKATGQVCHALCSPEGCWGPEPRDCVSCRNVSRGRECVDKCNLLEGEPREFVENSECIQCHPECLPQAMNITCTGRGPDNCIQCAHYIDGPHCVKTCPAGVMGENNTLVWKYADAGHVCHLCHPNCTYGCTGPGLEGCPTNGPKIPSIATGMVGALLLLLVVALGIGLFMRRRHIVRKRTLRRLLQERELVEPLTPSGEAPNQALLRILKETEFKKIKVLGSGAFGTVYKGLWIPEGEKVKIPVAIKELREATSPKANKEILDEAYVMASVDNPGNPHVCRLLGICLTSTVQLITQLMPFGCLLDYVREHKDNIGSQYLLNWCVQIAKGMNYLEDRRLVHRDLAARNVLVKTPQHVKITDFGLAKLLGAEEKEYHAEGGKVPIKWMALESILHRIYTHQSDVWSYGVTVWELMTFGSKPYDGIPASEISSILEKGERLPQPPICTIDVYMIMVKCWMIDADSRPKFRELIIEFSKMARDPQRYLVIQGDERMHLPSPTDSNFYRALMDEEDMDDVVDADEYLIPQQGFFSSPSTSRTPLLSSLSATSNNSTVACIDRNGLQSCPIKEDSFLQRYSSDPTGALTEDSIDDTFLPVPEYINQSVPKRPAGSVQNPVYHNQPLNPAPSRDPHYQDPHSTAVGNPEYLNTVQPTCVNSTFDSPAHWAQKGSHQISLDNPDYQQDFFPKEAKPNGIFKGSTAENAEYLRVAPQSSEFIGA
Chain of Ba/F3-EGFR-L858R cells (P00533 whole entry L858R): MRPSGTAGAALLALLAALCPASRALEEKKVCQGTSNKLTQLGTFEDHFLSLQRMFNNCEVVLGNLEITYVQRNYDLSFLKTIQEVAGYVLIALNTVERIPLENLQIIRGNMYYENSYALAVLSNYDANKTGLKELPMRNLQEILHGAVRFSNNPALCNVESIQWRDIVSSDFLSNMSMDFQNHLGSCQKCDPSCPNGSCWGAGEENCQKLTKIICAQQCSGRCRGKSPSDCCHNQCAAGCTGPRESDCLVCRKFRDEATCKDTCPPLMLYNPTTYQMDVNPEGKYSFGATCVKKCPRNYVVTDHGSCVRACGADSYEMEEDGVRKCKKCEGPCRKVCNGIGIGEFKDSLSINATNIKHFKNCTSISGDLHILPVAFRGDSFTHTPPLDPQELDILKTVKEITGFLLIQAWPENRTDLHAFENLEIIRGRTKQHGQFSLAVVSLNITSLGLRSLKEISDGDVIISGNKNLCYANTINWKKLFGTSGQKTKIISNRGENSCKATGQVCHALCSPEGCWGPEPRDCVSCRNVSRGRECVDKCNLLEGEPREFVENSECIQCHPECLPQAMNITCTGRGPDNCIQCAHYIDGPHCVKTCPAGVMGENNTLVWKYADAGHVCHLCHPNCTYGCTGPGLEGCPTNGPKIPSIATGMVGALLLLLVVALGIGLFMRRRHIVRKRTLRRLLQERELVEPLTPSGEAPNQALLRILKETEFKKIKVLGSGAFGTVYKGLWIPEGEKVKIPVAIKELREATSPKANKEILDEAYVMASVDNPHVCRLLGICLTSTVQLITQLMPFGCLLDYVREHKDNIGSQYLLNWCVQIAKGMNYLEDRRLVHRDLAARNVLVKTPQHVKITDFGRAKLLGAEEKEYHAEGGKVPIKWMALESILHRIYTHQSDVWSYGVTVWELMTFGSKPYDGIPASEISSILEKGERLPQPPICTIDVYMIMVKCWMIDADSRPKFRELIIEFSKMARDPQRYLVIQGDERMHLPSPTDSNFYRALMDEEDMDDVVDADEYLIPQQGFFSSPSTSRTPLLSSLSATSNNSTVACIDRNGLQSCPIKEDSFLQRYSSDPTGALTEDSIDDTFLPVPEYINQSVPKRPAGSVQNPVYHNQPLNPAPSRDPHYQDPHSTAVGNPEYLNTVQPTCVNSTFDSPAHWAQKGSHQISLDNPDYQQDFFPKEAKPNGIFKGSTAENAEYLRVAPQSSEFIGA

As to `COc1c(F)cccc1Nc1c(-c2ccncc2OC[C@@H](C)OC)[nH]c2c1C(=O)NCC2` [Example 92, 3-(3-fluoro-2-methoxyanilino)-2-{3-[(2R)-2-methoxypropoxy]pyridin-4-yl}-1,5,6,7-tetrahydro-4H-pyrrolo[3,2-c]pyridin-4-one], the IC50 in test [1] was 25.6 nM; in test [3] (setting [9]), less than 3 nM; in [4], 1.61 nM; in [5], 0.375 nM; in test [6] it was 0.363 nM; in the test with Ba/F3-EGFR L861Q cells it was 38 nM. Further, the IC50 in the test with PC9 cells (EGFRex19del) (setting [10]) turned out to be 3.27 nM. The GI50 in test [2] amounted to 14.9 nM; at Ba/F3-EGFR-L858R cells, 1.31 nM; in test [7], 17.2 nM; in test [8], 13.9 nM.
Regarding `COc1c(Cl)cccc1Nc1c(-c2ccncc2OCC(C)(C)OC)[nH]c2c1C(=O)NCC2` [Example 33, 3-(3-chloro-2-methoxyanilino)-2-[3-(2-methoxy-2-methylpropoxy)pyridin-4-yl]-1,5,6,7-tetrahydro-4H-pyrrolo[3,2-c]pyridin-4-one], the IC50 in test [1] was found to be 49.4 nM; in [4], 3.34 nM; in [5], 2.96 nM; in [6], 1.42 nM; with Ba/F3-EGFR L861Q cells, 57.3 nM. Besides, the GI50 in [2] came out at 41.1 nM; on Ba/F3-EGFR-L858R cells, 3.16 nM; in [7], 30.4 nM; in [8], 26.2 nM.
Take `COc1c(Cl)cccc1Nc1c(-c2ccncc2OC[C@@H]2CCCO2)[nH]c2c1C(=O)NCC2` [Example 66, 3-(3-chloro-2-methoxyanilino)-2-(3-{[(2S)-oxolan-2-yl]methoxy}pyridin-4-yl)-1,5,6,7-tetrahydro-4H-pyrrolo[3,2-c]pyridin-4-one]: the IC50 is 15.3 nM in test [1]; less than 3 nM in test [3] (setting [11]); 1.22 nM in test [4]; less than 0.15 nM in [5]; 0.288 nM in test [6]; 9.81 nM in the test on Ba/F3-EGFR L861Q cells. The compound also gave an IC50 in the test with PC9 cells (EGFRex19del) (setting [12]) of 0.944 nM. In addition, the GI50 in test [2] is 6.62 nM; at Ba/F3-EGFR-L858R cells, 0.685 nM; in test [7] it was 6.4 nM; in test [8] it was 5.57 nM.
In the case of `COc1c(Cl)cccc1Nc1c(-c2ccncc2OC[C@@H]2CCCN2C)[nH]c2c1C(=O)NCC2` [Example 48, 3-(3-chloro-2-methoxyanilino)-2-(3-{[(2S)-1-methylpyrrolidin-2-yl]methoxy}pyridin-4-yl)-1,5,6,7-tetrahydro-4H-pyrrolo[3,2-c]pyridin-4-one], the IC50 in test [1] was 17.2 nM; in test [3] (setting [9]), less than 3 nM; in [4] it was 1.06 nM; in test [5], 1.13 nM; in test [6], 0.543 nM; in the test on Ba/F3-EGFR L861Q cells it was 21.4 nM. In addition, the IC50 in the test on PC9 cells (EGFRex19del) (setting [10]) was found to be 10 nM. Also, the GI50 in test [2] came to 21.7 nM; at Ba/F3-EGFR-L858R cells, 1.39 nM; in test [7] it was 15.1 nM; in test [8], 10 nM.
For `COc1c(Cl)cccc1Nc1c(-c2ccncc2OC[C@H]2CCCO2)[nH]c2c1C(=O)NCC2` [Example 67, 3-(3-chloro-2-methoxyanilino)-2-(3-{[(2R)-oxolan-2-yl]methoxy}pyridin-4-yl)-1,5,6,7-tetrahydro-4H-pyrrolo[3,2-c]pyridin-4-one], the IC50 is 23.8 nM in test [1]; less than 3 nM in [3] (setting [11]); 1.82 nM in [4]; 0.643 nM in [5]; 0.387 nM in [6]; 19 nM in the test on Ba/F3-EGFR L861Q cells. Besides, the IC50 with PC9 cells (EGFRex19del) (setting [12]) is 1.77 nM. In addition, the GI50 in test [2] is 11.5 nM; on Ba/F3-EGFR-L858R cells, 1.48 nM; in test [7] it was 12.8 nM; in [8], 13.1 nM.
Consider `Cc1c(F)cccc1Nc1c(-c2ccncc2OC[C@@H]2CCCN2C)[nH]c2c1C(=O)NCC2` [Example 49, 3-(3-fluoro-2-methylanilino)-2-(3-{[(2S)-1-methylpyrrolidin-2-yl]methoxy}pyridin-4-yl)-1,5,6,7-tetrahydro-4H-pyrrolo[3,2-c]pyridin-4-one], for which the IC50 in test [1] was 198 nM; in test [4], 7.83 nM; in test [5], 11.6 nM; in [6], 3.01 nM; in the test on Ba/F3-EGFR L861Q cells it was 177 nM; in the test on PC9 cells (EGFRex19del) (setting [10]) it was less than 30 nM. Besides, the IC50 with PC9 cells (EGFRex19del) (Table 12, several values per example) is 51.3 nM. In addition, the GI50 in test [2] came out at 231 nM; on Ba/F3-EGFR-L858R cells, 22.7 nM; in [7], 284 nM; in test [8], 115 nM.
